Laboratory results taken from US12161675B2, “Production method for culture supernatant preparation” (LABORATORY OF CELL APPLIED TECHNOLOGIES, CO, priority 2018, dated 2024).

Tests used:
[1] = Storage stability of freeze-dried culture supernatant (VEGF protein by ELISA); assay type: physicochemical; details: for Value of VEGF relative quantification at each storage temperature: trehalose 250 mM
Description: As was in Example 5, the culture supernatant after 48 hours in the second culturing step was recovered and the culture supernatant obtained by centrifugal separation (740G, 5 minutes) was divided into 2 groups, a no addition group and a group with addition of 250 mM trehalose (manufactured by Hayashibara Co., Ltd.). Subsequently, the culture supernatant was passed through a filtration filter (KURABO INDUSTRIES Ltd.) having a membrane pore diameter of 0.2 micrometers and aliquoted into syringes (Terumo Corp.). The syringes were sealed in sterile bags, frozen in a −80° C. freezer, and then transferred to the inside of the freeze-drying device (Yamato Scientific Co., Ltd.) to perform freeze drying. After the completion of freeze drying, the syringes were sealed with luer caps for syringe (Terumo Corp.). The freeze-dried samples were stored in a sealed state under three temperature conditions of −80° C., 4° C., and 25° for 3 weeks. After 3 weeks, the freeze-dried samples were resuspended in water for injection (manufactured by Otsuka Pharmaceutical Co., Ltd.) and protein quantification was performed using QUANTIKINE ELISA Human VEGF (manufactured by R&D Systems, Inc.). As a quantitative value, a relative quantitative value of the VEGF protein at each storage temperature was calculated by taking a quantitative value of the VEGF protein included in the culture supernatant stored at −80° C. for 3 weeks as a reference.

VEGF protein = VEGF protein in ASC culture supernatant by QUANTIKINE ELISA; assay type: cell-based, human; details: 48 hours; for VEGF concentration: ASC culture supernatant, 0 ng/mL gave 199.5
Description: (§1) Adipose tissue-derived mesenchymal stromal cells extracted by subjecting normal human adipose tissues to an enzyme treatment were cultured using a DME medium (Dulbecco's modified eagle medium manufactured by Gibco, high glucose) including 20% fetal bovine serum (FBS) in a non-treated culture flask (manufactured by FALCON) as primary culture. The primary culture cells right before confluency were recovered by an enzyme treatment, seeded on a non-treated 12-well culture plate (manufactured by Sumitomo Bakelite Co., Ltd.) using the same medium, and cultured until becoming confluent.
(§2) After rinsing the cells, the medium was replaced with an FBS-free DME medium or HBSS (Hanks' balanced salt solution manufactured by Sigma-Aldrich Co.)-HEPES. Subsequently, 12 wells were divided into 4 groups each consisting of 3 wells, and the FBS-free DME medium was cultured in a 5% CO2 incubator (Reference example) and HBSS-HEPES was cultured in an incubator (Example). The culture supernatant in each well was recovered immediately after replacement (0 hours) and 3 hours, 6 hours, 24 hours, and 48 hours thereafter.
The culture supernatant recovered as described in cell culture and recovery of culture supernatant was passed through a filter having a diameter of 0.22 micrometers to prepare a sample for protein quantification.
Protein quantification of the sample was performed by using the QUANTIKINE ELISA (Human VEGF, FGF-2) kit from R&D Systems, Inc. and a quantitative value of each protein was obtained in accordance with the protocol of the kit.
The rinsed cells were divided into 4 groups each consisting of 3 wells and their culture media were replaced with HBSS-HEPES added with PGE1 (Prostandin manufactured by Maruishi Pharmaceutical. Co., Ltd.) at a concentration of 0 ng/ml, 4 ng/ml, 40 ng/ml, and 400 ng/ml, followed by culturing in an incubator (Example). At 48 hours after the replacement, the culture supernatant was recovered from each well and subjected to protein quantification using QUANTIKINE ELISA Human VEGF (manufactured by R&D Systems, Inc.). […] The complementary DNA was used to relatively quantify the VEGF gene expression level by real-time PCR (Rotor-Gene Q manufactured by QIAGEN).
After rising, three groups were each added with 3 mL, 2 mL, or 1 mL of HBSS (Hanks' balanced salt solution manufactured by Sigma-Aldrich Co.)-HEPES pH7.4 and cultured for 48 hours in an incubator (Example). Subsequently, each culture supernatant was recovered in a 5 mL tube (manufactured by BD Falcon) and the VEGF protein was quantified by using QUANTIKINE ELISA Human VEGF (manufactured by R&D Systems, Inc.). […] Then, the complementary DNA was used to relatively quantify the VEGF gene expression level by real-time PCR (Rotor-Gene Q manufactured by QIAGEN). […]

VEGF gene = VEGF gene expression by real-time PCR in adipose tissue-derived mesenchymal stromal cells (ASC); assay type: cell-based, human; details: 48 hours; for Value of mRNA relative quantification (VEGF): 0 ng/mL = 1.00
Description: as §1
After confirming that the cells became confluent, the medium was removed and the cell surface was rinsed with PBS (Dulbecco's phosphate buffered saline manufactured by DS Pharma Biomedical Co., Ltd.).
as §2
After recovering the culture supernatant as described above, an RNA extraction solution ISOGEN (Nippon Gene Co., Ltd., No. 319-90211) was added to each well in an amount of 400 microliters and the total RNAs were extracted from the cells in accordance with a conventional method. The precipitate of the total RNAs obtained by using Ethachinmate (Nippon Gene Co., Ltd., No. 312-01791) was dissolved in nuclease-free water. The concentration of the total RNAs was measured using 1.5 microliters of the dissolved RNAs by NanoDrop (Thermo Fisher Scientific). One hundred nanograms of the total RNAs thus obtained were used to synthesize complementary DNA using an iScript cDNA synthesis kit (Bio-Rad Laboratories, Inc., No. 1708891), and the resulting complementary DNA was used for quantifying an expression level of each gene by real-time PCR (Rotor-Gene Q manufactured by QIAGEN).
The synthesized DNA, primers (QuantiTect Primer Assay, QIAGEN) specific for the gene to be detected and quantified, and a real-time PCR agent (RotorGene SYBR Green, QIAGEN) were mixed, and real-time PCR was performed by using the Rotor-Gene Q system (QIAGEN) to amplify fragments of the gene to be detected and quantified. In this operation, primers specific for β-Actin as a housekeeping gene were used for amplification in the same manner, and this amplification curve was used as a reference to relatively calculate a quantitative value of the gene desired to be detected and quantified. […]

[2] = ASC, HBSS-HEPES with PGE1 0 to 400 ng/ml

| Value of VEGF relative quantification at each storage temperature ([1]; freeze-dried culture supernatant stored 3 weeks at 4° C., relative to −80° C.) | Value of VEGF relative quantification at each storage temperature ([1]; freeze-dried culture supernatant stored 3 weeks at 25° C., relative to −80° C.) | Value of VEGF relative quantification at each storage temperature ([1]; freeze-dried culture supernatant stored 3 weeks at −80° C. (reference)) | VEGF protein after storage of freeze-dried culture supernatant ([1]; stored 3 weeks under the environment of 25° C., trehalose final concentration 250 mM) | SMILES | VEGF concentration (VEGF protein; HBSS-HEPES with PGE1 4 ng/mL) | VEGF concentration (VEGF protein; HBSS-HEPES with PGE1 40 ng/mL) | VEGF concentration (VEGF protein; HBSS-HEPES with PGE1 400 ng/mL) | protein amount (VEGF) in culture supernatant (VEGF protein; [2]) | Value of mRNA relative quantification (VEGF) (VEGF gene; ASC in HBSS-HEPES with PGE1 4 ng/mL) | Value of mRNA relative quantification (VEGF) (VEGF gene; ASC in HBSS-HEPES with PGE1 40 ng/mL) | Value of mRNA relative quantification (VEGF) (VEGF gene; ASC in HBSS-HEPES with PGE1 400 ng/mL) | relative quantitative value of the mRNA expression level (VEGF) (VEGF gene; [2]) |
| --- | --- | --- | --- | --- | --- | --- | --- | --- | --- | --- | --- | --- |
| 0.96 | 0.73 | 1.00 | suppressed the reduction | OC[C@H]1O[C@H](O[C@H]2O[C@H](CO)[C@@H](O)[C@H](O)[C@H]2O)[C@H](O)[C@@H](O)[C@@H]1O [Trehalose, trehalose] | – | – | – | – | – | – | – | – |
| – | – | – | – | CCCCC[C@H](O)/C=C/[C@H]1[C@H](O)CC(=O)[C@@H]1CCCCCCC(=O)O [PGE1] | 201.8 pg/mL | 281. 5 pg/mL | 299.0 pg/mL | tended to increase | 0.88 | 1.04 | 0.97 | remained substantially constant |
